Earlier results as cited in US20240254438A1, “MULTI-REGIONAL HUMAN NEURAL CIRCUITS IN ASSEMBLOIDS DERIVED FROM PLURIPOTENT STEM CELLS” (The Board of Trustees of the Leland Stanford Junior …, priority 2021, published 2024).
Values belong to the compound of their own block, whether it stands above or below them.

Experiments:
PORCN [1] = test system: PORCN
Smo heptahelical domain = Smo heptahelical domain (Homo sapiens, UniProt Q99835)
PORCN [2] = conditions: HEK293 cells, Wnt3A-mediated TCF luciferase
[3] = target: element-binding protein (CBP) (Homo sapiens, UniProt Q92793); conditions: binds to element-binding protein (CBP)
Chain of element-binding protein (CBP) (Q92793 whole entry): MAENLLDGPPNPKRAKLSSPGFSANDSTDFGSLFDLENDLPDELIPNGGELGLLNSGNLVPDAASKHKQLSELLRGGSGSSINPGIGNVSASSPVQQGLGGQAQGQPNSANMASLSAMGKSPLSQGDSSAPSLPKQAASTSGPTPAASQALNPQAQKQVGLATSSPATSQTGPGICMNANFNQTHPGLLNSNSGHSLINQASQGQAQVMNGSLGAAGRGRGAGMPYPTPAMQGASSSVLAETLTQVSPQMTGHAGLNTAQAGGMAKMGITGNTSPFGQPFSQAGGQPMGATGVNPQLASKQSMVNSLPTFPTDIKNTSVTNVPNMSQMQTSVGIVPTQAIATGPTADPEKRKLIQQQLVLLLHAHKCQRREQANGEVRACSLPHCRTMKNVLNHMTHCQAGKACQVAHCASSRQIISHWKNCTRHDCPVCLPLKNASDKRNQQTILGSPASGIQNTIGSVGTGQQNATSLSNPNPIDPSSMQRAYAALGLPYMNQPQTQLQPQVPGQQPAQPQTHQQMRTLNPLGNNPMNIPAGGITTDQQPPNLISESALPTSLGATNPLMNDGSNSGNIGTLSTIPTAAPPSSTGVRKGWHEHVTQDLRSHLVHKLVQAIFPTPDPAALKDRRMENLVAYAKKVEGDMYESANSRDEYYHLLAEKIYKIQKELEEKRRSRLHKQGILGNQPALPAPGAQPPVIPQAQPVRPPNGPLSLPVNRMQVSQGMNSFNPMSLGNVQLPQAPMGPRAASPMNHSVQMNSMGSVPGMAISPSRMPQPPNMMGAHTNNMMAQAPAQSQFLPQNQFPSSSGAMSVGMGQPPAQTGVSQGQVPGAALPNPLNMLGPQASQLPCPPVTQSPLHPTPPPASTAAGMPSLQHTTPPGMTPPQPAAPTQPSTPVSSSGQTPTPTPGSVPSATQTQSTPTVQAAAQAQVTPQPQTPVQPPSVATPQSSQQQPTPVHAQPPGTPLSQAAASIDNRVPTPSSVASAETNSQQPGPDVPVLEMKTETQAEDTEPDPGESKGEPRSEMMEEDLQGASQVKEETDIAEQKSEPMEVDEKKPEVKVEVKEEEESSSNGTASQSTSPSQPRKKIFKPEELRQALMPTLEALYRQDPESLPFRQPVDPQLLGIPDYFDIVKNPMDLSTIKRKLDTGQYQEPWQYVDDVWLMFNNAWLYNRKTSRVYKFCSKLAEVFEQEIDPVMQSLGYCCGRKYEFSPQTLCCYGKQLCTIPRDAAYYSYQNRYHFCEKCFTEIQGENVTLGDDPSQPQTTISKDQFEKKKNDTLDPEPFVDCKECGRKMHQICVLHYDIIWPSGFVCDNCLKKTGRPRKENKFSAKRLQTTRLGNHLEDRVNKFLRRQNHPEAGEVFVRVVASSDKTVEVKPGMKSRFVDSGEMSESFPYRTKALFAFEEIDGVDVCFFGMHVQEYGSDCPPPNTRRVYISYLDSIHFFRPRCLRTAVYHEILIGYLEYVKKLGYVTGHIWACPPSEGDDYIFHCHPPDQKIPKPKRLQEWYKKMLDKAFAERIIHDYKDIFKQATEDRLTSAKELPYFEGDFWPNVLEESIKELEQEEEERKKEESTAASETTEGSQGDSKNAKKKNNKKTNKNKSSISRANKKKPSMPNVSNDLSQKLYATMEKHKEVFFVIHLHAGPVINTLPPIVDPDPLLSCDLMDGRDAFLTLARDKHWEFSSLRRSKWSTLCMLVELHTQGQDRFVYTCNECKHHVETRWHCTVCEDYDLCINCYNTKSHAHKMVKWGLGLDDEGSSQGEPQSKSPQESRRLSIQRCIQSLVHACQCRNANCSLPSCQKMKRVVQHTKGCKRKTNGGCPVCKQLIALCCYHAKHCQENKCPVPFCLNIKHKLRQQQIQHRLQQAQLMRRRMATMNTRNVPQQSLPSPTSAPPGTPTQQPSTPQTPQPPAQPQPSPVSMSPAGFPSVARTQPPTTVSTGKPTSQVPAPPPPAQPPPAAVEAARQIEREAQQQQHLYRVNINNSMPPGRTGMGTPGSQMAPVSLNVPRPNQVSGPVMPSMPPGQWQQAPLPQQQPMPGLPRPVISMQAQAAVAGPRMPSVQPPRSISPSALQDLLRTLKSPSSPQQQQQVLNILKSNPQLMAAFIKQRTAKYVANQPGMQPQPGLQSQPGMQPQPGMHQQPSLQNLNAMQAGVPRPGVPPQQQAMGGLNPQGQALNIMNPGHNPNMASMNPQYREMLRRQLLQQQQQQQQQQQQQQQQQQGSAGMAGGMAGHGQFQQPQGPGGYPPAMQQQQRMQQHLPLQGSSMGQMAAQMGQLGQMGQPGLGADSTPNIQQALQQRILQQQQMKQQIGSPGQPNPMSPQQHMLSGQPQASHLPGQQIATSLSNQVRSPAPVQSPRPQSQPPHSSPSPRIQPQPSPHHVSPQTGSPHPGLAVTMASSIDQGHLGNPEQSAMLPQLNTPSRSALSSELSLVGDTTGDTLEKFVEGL

[4] = test system: Wnt processing and secretion; conditions: cell-free assay
TNKS2 = target: T1, TNKS2 (Homo sapiens, UniProt Q9H2K2)
T1 sequence (Q9H2K2 1-1166): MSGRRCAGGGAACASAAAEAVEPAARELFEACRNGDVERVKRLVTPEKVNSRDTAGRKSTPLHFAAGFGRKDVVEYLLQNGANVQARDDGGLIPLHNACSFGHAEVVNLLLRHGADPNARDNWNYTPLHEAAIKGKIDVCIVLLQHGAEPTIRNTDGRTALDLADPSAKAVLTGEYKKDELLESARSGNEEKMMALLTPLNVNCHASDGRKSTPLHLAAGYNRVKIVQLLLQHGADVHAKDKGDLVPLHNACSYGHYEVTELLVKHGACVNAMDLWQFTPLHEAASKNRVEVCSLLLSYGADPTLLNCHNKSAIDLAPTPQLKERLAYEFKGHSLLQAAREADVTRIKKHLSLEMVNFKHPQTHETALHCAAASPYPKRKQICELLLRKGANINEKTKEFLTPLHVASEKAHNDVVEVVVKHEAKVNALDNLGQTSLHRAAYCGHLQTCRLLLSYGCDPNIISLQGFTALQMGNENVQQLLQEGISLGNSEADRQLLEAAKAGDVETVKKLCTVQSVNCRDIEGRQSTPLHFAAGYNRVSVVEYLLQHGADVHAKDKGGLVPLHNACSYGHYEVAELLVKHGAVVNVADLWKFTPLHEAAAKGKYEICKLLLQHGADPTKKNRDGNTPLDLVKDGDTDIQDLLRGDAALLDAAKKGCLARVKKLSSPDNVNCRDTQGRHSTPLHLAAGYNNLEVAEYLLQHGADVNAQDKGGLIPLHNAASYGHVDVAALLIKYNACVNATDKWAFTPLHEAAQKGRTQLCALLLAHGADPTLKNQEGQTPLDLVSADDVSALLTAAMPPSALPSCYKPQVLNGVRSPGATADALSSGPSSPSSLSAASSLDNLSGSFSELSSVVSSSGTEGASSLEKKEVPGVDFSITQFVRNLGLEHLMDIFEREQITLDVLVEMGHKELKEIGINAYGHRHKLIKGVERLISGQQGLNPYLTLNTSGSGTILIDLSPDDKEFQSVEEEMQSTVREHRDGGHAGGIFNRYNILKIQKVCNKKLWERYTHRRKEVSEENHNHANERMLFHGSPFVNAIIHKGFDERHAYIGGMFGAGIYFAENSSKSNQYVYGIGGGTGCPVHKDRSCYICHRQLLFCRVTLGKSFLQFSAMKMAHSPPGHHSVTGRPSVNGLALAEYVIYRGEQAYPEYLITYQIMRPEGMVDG

Wnt signaling = conditions: TM3 cells

Chain of Smo heptahelical domain (Q99835 28-787): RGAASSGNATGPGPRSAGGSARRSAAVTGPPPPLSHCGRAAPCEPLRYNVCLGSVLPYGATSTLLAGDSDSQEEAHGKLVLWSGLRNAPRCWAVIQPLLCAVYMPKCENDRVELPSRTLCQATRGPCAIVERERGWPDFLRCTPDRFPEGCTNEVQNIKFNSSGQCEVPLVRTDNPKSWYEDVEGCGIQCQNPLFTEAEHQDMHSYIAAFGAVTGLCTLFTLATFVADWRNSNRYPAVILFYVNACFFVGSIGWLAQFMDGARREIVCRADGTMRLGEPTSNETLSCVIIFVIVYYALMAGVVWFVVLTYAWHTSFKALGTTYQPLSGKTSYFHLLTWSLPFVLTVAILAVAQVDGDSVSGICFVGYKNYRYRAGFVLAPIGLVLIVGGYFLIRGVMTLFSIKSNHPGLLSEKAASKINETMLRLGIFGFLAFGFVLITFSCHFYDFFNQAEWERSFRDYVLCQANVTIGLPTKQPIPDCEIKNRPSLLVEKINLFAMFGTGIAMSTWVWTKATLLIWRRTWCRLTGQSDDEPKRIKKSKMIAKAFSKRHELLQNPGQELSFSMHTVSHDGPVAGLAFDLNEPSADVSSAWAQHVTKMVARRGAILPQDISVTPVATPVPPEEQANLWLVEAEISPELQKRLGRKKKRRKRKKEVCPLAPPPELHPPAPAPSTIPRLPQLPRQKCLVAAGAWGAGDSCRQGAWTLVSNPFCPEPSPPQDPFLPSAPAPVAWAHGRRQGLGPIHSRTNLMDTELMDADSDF

Kd (Smo heptahelical domain): 59 nM
SMILES: CNC1CCC(N(Cc2cccc(-c3ccncc3)c2)C(=O)c2sc3ccccc3c2Cl)CC1 (stereo not shown) [SAG]

IC50 (TNKS2): 15 nM
SMILES: COc1ccc(-n2c(SCCCN3C(=O)c4cccc5cccc(c45)C3=O)nnc2-c2ccncc2)cc1 [WIKI4]

The remaining lines, values behind:

SMILES: O=C(CSc1nc2c(c(=O)n1-c1ccccc1)SCC2)Nc1ccc(-c2ccccc2)cn1 [IWP-L6]
EC50 (PORCN [1]): 0.5 nM

SMILES: Cc1cc(-c2ccc(CC(=O)Nc3ccc(-c4cccnc4)cc3)cc2)ccn1 [Wnt-C59]
IC50 (PORCN [2]): 0.074 nM

SMILES: O=C1[C@H](Cc2ccc(O)cc2)N2C(=O)CCN(C(=O)NCc3ccccc3)[C@H]2CN1Cc1cccc2ccccc12 [ICG-001]
IC50 [3]: 3000 nM

SMILES: Cc1ccc2nc(NC(=O)CSc3nc4c(c(=O)n3-c3ccccc3)SCC4)sc2c1 [IWP-2]
IC50 [4]: 27 nM

SMILES: Cc1cc(-c2ncc(CC(=O)Nc3ccc(-c4cnccn4)cn3)cc2C)ccn1 [LGK-974]
IC50 (Wnt signaling): 0.4 nM
